Test results reported in the supplement of paper PMC10307832.

Key:
Assay in all cases: relative viability (nuclei count vs DMSO), 5 days (fraction); higher = more cells survive
[1] = compound: C1=CC=C2C(=C1)N=C(S2)C(C#N)C3=NC(=NC=C3)NCCC4=CN=CC=C4 + CC(=O)Nc1cccc(-n2c(=O)n(C3CC3)c(=O)c3c(Nc4ccc(I)cc4F)n(C)c(=O)c(C)c32)c1 [Trametinib] (partner 0.02 µM)
Method in brief: (§1)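 Lung cancer cell lines in 1536-well plates were dosed by pin tool the day after seeding, either with one drug alone or with a fixed anchor-drug dose plus five library-drug doses (not always all listed) in √10 steps. After 5 days, cells were fixed and their nuclei stained in one step (final 0.05% Triton X-100, 1% formaldehyde, 1 ug/ml Hoechst), then counted on 4× images. Relative viability is the nuclei count in treated wells divided by that in vehicle wells. Values are medians of duplicate plates.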

[2] = compound: C1=CC=C2C(=C1)N=C(S2)C(C#N)C3=NC(=NC=C3)NCCC4=CN=CC=C4 + COc1cccc2cc(-c3nc([C@H]4CC[C@H](C(=O)O)CC4)n4ncnc(N)c34)[nH]c12 [OSI-027] (partner 0.5 µM)
Method in brief: as §1

[3] = compound: C#Cc1cccc(Nc2ncnc3cc(OC)c(OCCCCCCC(=O)NO)cc23)c1 [CUDC-101] + Cc1cc(Nc2cc(N3CCN(C)CC3)nc(Sc3ccc(NC(=O)C4CC4)cc3)n2)n[nH]1 [Tozasertib] (partner 0.1 µM)
Method in brief: as §1

[4] = compound: C1=CC=C2C(=C1)N=C(S2)C(C#N)C3=NC(=NC=C3)NCCC4=CN=CC=C4 + O=C(CCCCCCC(=O)Nc1ccccc1)NO [Vorinostat] (partner 1 µM)
Method in brief: as §1

Cell Line | relative viability ([1]; first compound 0.005 µM) | relative viability ([1]; first compound 0.05 µM) | relative viability ([1]; first compound 0.1581 µM) | relative viability ([1]; first compound 0.5 µM) | relative viability ([2]; first compound 0.005 µM) | relative viability ([2]; first compound 0.01581 µM) | relative viability ([2]; first compound 0.05 µM) | relative viability ([2]; first compound 0.1581 µM) | relative viability ([2]; first compound 0.5 µM) | relative viability ([3]; first compound 0.01 µM) | relative viability ([3]; first compound 0.03162 µM) | relative viability ([3]; first compound 0.1 µM) | relative viability ([3]; first compound 0.3162 µM) | relative viability ([3]; first compound 1 µM) | relative viability ([4]; first compound 0.005 µM) | relative viability ([4]; first compound 0.05 µM) | relative viability ([4]; first compound 0.1581 µM) | relative viability ([4]; first compound 0.5 µM) | relative viability ([4]; first compound 0.01581 µM) | relative viability ([1]; first compound 0.01581 µM)
PC-3 [JPC-3] | 0.689 | 0.642 | 0.737 | 0.636 | 0.717 | 0.877 | 0.771 | 0.888 | 0.483 | 0.89 | 0.847 | 0.834 | 0.61 | 0.314 | 0.864 | 0.843 | 0.991 | 0.737 | – | –
IA-LM | – | – | – | – | – | – | – | – | – | – | – | – | – | – | 0.742 | 1.02 | 1.11 | 0.613 | 1.09 | –
NCI-H520 | 0.659 | 0.765 | 0.799 | 0.824 | 0.199 | 0.261 | 0.222 | 0.32 | 0.272 | 0.443 | 0.434 | 0.449 | 0.401 | 0.304 | 0.532 | 0.667 | 0.826 | 0.707 | 0.858 | 0.684
BEN | 1.08 | 1.15 | 1.05 | 1.2 | 0.427 | 0.283 | 0.274 | 0.625 | 0.587 | 0.54 | 0.505 | 0.452 | 0.47 | 0.427 | 0.496 | 0.548 | 0.643 | 0.577 | 0.58 | 1.11
COR-L 105 | 0.379 | 0.412 | 0.474 | 0.498 | 0.576 | 0.556 | 0.71 | 0.768 | 0.547 | 0.266 | 0.353 | 0.342 | 0.27 | 0.311 | 0.648 | 0.884 | 0.893 | 0.876 | 0.908 | 0.423
NCI-H1734 | 0.629 | 0.578 | 0.75 | 0.649 | – | 0.571 | 0.546 | 0.669 | 0.556 | 0.256 | 0.257 | 0.23 | 0.216 | 0.202 | 0.7 | 0.758 | 1.06 | 0.78 | 0.785 | 0.745
LOU-NH91 | 0.794 | 0.764 | 0.794 | 0.779 | 0.673 | 0.689 | 0.703 | 0.733 | 0.729 | 0.703 | 0.548 | 0.472 | 0.411 | 0.305 | 0.907 | 0.769 | 1.03 | 0.837 | 0.826 | 0.806
NCI-H2405 | 0.582 | 0.63 | 0.643 | 0.599 | 0.666 | 0.673 | 0.614 | 0.695 | 0.645 | 0.748 | 0.809 | 0.725 | 0.756 | 0.611 | 0.82 | 0.953 | 1.15 | 0.727 | 0.938 | 0.645
HCC-15 | 0.396 | 0.369 | 0.378 | 0.356 | 0.558 | 0.644 | 0.722 | 0.863 | 0.531 | 0.383 | 0.368 | 0.314 | 0.322 | 0.238 | 0.959 | 0.816 | 0.851 | 0.775 | 0.971 | 0.418
HCC-44 | 1.06 | 1.02 | 1.07 | 0.967 | 0.421 | – | 0.566 | 0.531 | 0.47 | 0.795 | 0.899 | 0.999 | 0.917 | 0.7 | 1.19 | 1.09 | 1.15 | 1.02 | 1.14 | 1.1
NCI-H1792 | – | 0.421 | 0.387 | 0.385 | 0.648 | 0.64 | 0.759 | 1.16 | 0.36 | – | – | – | – | – | – | – | – | – | – | 0.44
NCI-H2347 | 0.282 | 0.296 | 0.3 | 0.267 | 0.454 | 0.394 | 0.39 | 0.58 | 0.408 | 0.561 | 0.614 | 0.608 | 0.583 | 0.499 | 0.578 | 0.551 | 0.72 | 0.558 | 0.524 | 0.268
SW 900 | 0.586 | 0.584 | 1.06 | 0.648 | 0.48 | 0.448 | 0.506 | 0.763 | 0.424 | 0.471 | 0.633 | 0.566 | 0.526 | 0.519 | 0.495 | 0.67 | 0.693 | 0.456 | 0.42 | 0.806
RERF-LC-KJ | 0.916 | 0.911 | 0.961 | 0.688 | 0.645 | 0.564 | 0.511 | 0.63 | 0.562 | 0.516 | 0.505 | 0.476 | 0.442 | 0.371 | 0.603 | 0.609 | 0.7 | 0.578 | 0.623 | 0.877
NCI-H522 | 0.98 | 0.766 | 0.755 | 0.761 | 0.674 | 0.681 | 0.717 | 0.713 | 0.685 | 0.602 | 0.53 | 0.539 | 0.528 | 0.366 | 0.824 | 0.875 | 0.712 | 0.864 | 0.774 | 0.846
NCI-H1666 | 0.923 | 0.907 | 0.836 | 0.847 | 0.776 | 0.839 | 0.804 | 0.849 | 0.812 | 0.594 | 0.564 | 0.676 | 0.565 | 0.507 | 0.959 | 1.07 | 1.04 | 1 | 0.922 | 0.838
LC-2-ad | 0.881 | 0.891 | 0.928 | 0.829 | 0.724 | 0.803 | 0.912 | 0.875 | 0.695 | 0.445 | 0.47 | 0.449 | 0.326 | 0.276 | 0.621 | 0.676 | 0.823 | 0.612 | 0.704 | 0.979
